According to patent US20250230226A1, “PLXDC1/PLXDC2 ACTIVATORS AND THEIR USE IN THE TREATMENT OF BLOOD VESSEL DISORDERS” (THE REGENTS OF THE UNIVERSITY OF CALIFORNIA, priority 2019, published 2025):

What was measured:
[1] = system: CT26.CL25 colon cancer tumor endothelial cells; assay: Colon CT26 ex vivo model of tumor angiogenesis; format: cell-based, mouse; conditions: for cytotoxicity at 10 µM / cytotoxicity at 40 µM / cytotoxicity at 20 µM: Mus musculus, Endothelial cell, 48 h, read-out: Cell death
Procedure, shortened: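 Pieces of CT26 mouse tumor (~0.075 mm³) embedded in Matrigel and cultured in endothelial growth medium at 37 °C, 5% CO2 until endothelial outgrowth appeared (about 7 days), then treated. About 48 h after drug addition, live/dead staining with fluorescein diacetate and propidium iodide was imaged in green and red channels.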

[2] = system: LL/2 lung cancer tumor endothelial cells; assay: Lung LL2 ex vivo model of tumor angiogenesis; format: cell-based, mouse; conditions: for 48 hrs (morphology observations): LL/2 tumor endothelial cells; for cytotoxicity at 20 µM / cytotoxicity at 40 µM: Mus musculus, Endothelial cell, 48 h, read-out: Cell death; for Cell death: drug treatment for two days, ratio of red area to total endothelial cell area
Procedure, shortened: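 LL2 mouse tumor fragments (~0.075 mm³) embedded in Matrigel and cultured in endothelial growth medium at 37 °C until endothelial outgrowth (~4 days) before treatment. Cell death assessed e.g. 48 h after drug by fluorescein diacetate (live)/propidium iodide (dead) staining and red/green fluorescence imaging.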

| SMILES | 48 hrs (morphology observations after 48 hours) ([1]; Conc. 40 μm) | 48 hrs (morphology observations) ([2]; 40 μm) | Cell death ([2]; 40 μm) [%] | cytotoxicity at 40 µM [1] [%] | other results |
| --- | --- | --- | --- | --- | --- |
| COc1ccc(S(=O)(=O)c2cnc3ccc(OC(F)(F)F)cc3c2-n2cncn2)cc1OC [Compound 89] | – | – | – | – | 48 hrs (morphology observations after 48 hours) ([1]; Conc. 10 μm): *** (100% of endothelial cells vesicularize in cell shape); cytotoxicity at 10 µM [1]: 100%; 48 hrs (morphology observations) ([2]; 20 μm): *** (more than 50% but less than 100% of endothelial cells vesicularize in cell shape); cytotoxicity at 20 µM [2]: 100% |
| CCCCOc1ccc(S(=O)(=O)c2cnc3ccc(SC)cc3c2N2CCC(N3CCC(O)CC3)CC2)cc1 [Compound 162] | *** (100% of endothelial cells vesicularize in cell shape) | *** (more than 50% but less than 100% of endothelial cells vesicularize in cell shape) | 70 | – | – |
| CCCCOc1ccc(S(=O)(=O)c2cnc3ccc(C(=O)OCC)cc3c2N2CCC(N3CCC(N4CCCCC4)CC3)CC2)cc1 [Compound 216] | **** (100% of endothelial cells vesicularize in cell shape and look flattened in morphology (indicating disintegration of the cell body)) | **** (100% of endothelial cells vesicularize in cell shape and look flattened in morphology (indicating disintegration of the cell body)) | – | 100 | cytotoxicity at 40 µM [2]: 100% |
| CCc1ccc(S(=O)(=O)c2cnc3ccc(OC(F)(F)F)cc3c2-n2cncn2)cc1 [Compound 51] | *** (100% of endothelial cells vesicularize in cell shape) | **** (100% of endothelial cells vesicularize in cell shape and look flattened in morphology (indicating disintegration of the cell body)) | 100 | 20 | – |
| CCCCOc1ccc(S(=O)(=O)c2cnc3ccc(C(=O)OCC)cc3c2N2CCC(N3CCOCC3)CC2)cc1 [Compound 212] | 0 | – | 50 | 10 | – |
| CCCCOc1ccc(S(=O)(=O)c2cnc3ccc(C(=O)OCC)cc3c2N2CCSCC2)cc1 [Compound 191] | 0 | – | 30 | 10 | – |
| CCc1ccc(S(=O)(=O)c2cnc3ccc(C(=O)O)cc3c2N2CCCN(C)CC2)cc1 [Compound 66] | 0 | – | 10 | 0 | – |
| CCc1ccc(S(=O)(=O)c2cnc3ccc(OC)cc3c2-n2cncn2)cc1 [Compound 79] | – | – | – | – | 48 hrs (morphology observations after 48 hours) ([1]; Conc. 10 μm): *** (100% of endothelial cells vesicularize in cell shape); cytotoxicity at 10 µM [1]: 100%; Cell death ([2]; 20 μm): 20% |
| CCOC(=O)C1CCN(c2c(S(=O)(=O)c3ccc(CC)cc3)cnc3ccc(OC(F)(F)F)cc23)CC1 [Compound 47] | 0 | – | 50 | 10 | – |
| CCc1ccc(S(=O)(=O)c2cnc3ccc(OC(F)(F)F)cc3c2N2CCCC(O)C2)cc1 (stereo not shown) [Compound 82] | 0 | – | 60 | 10 | – |
| CCCCCCCOc1ccc(S(=O)(=O)c2cnc3ccc(SC)cc3c2N2CCC(N3CCCCC3)CC2)cc1 [Compound 219] | *** (100% of endothelial cells vesicularize in cell shape) | **** (100% of endothelial cells vesicularize in cell shape and look flattened in morphology (indicating disintegration of the cell body)) | 60 | 90 | – |
| CCCCOc1ccc(S(=O)(=O)c2cnc3ccc([S+](C)[O-])cc3c2N2CCCN(CCN3CCCC3)CC2)cc1 (stereo not shown) [Compound 210] | *** (100% of endothelial cells vesicularize in cell shape) | 0 | 50 | 70 | – |
| COc1ccc(S(=O)(=O)c2cnc3ccc(CC#N)cc3c2NN2CCN(C)CC2)cc1 [Compound 99] | 0 | – | 10 | 0 | – |
| CCCCOc1ccc(S(=O)(=O)c2cnc3ccc(OC(F)(F)F)cc3c2N2CCCN(C)CC2)cc1 [Compound 151] | **** (100% of endothelial cells vesicularize in cell shape and look flattened in morphology (indicating disintegration of the cell body)) | **** (100% of endothelial cells vesicularize in cell shape and look flattened in morphology (indicating disintegration of the cell body)) | – | 100 | cytotoxicity at 40 µM [2]: 100% |
| CCc1ccc(S(=O)(=O)c2cnc3ccc([N+](=O)[O-])cc3c2N(CC)CC)cc1 [Compound 78] | 0 | – | 40 | 0 | – |
| CCCCOc1ccc(S(=O)(=O)c2cnc3ccc(C(=O)OCC)cc3c2N2CCCN(C)CC2)cc1 [Compound 158] | **** (100% of endothelial cells vesicularize in cell shape and look flattened in morphology (indicating disintegration of the cell body)) | **** (100% of endothelial cells vesicularize in cell shape and look flattened in morphology (indicating disintegration of the cell body)) | – | 100 | cytotoxicity at 40 µM [2]: 100% |
| N#Cc1ccc(S(=O)(=O)c2cnc3ccc(OC(F)(F)F)cc3c2N2CCC(N3CCCCC3)CC2)cc1 [Compound 54] | 0 | – | 50 | 10 | – |
| CCCCOc1ccc(S(=O)(=O)c2cnc3ccc(C(=O)NCCO)cc3c2N2CCC(N3CCCCC3)CC2)cc1 [Compound 202] | 0 | – | – | 10 | cytotoxicity at 40 µM [2]: 30% |
| CCCCOc1ccc2ncc(S(=O)(=O)c3ccc(OC)c(OC)c3)c(N3CCC(N4CCCCC4)CC3)c2c1 [Compound 116] | – | – | – | – | 48 hrs (morphology observations after 48 hours) ([1]; Conc. 20 μm): * (50% or less of cells vesicularize in cell shape); cytotoxicity at 20 µM [1]: 50%; 48 hrs (morphology observations) ([2]; 20 μm): *** (more than 50% but less than 100% of endothelial cells vesicularize in cell shape); Cell death ([2]; 20 μm): 100% |
| CCCCCCCOc1ccc(S(=O)(=O)c2cnc3ccc([S+](C)[O-])cc3c2N2CCC(N3CCC(N4CCCCC4)CC3)CC2)cc1 (stereo not shown) [Compound 258] | – | – | – | – | 48 hrs (morphology observations after 48 hours) ([1]; Conc. 10 μm): *** (100% of endothelial cells vesicularize in cell shape); cytotoxicity at 10 µM [1]: 100%; 48 hrs (morphology observations) ([2]; 20 μm): **** (100% of endothelial cells vesicularize in cell shape and look flattened in morphology (indicating disintegration of the cell body)); cytotoxicity at 20 µM [2]: 100% |
| CCCCCCCOc1ccc(S(=O)(=O)c2cnc3ccc([S+](C)[O-])cc3c2N2CCCN(C)CC2)cc1 (stereo not shown) [Compound 220] | **** (100% of endothelial cells vesicularize in cell shape and look flattened in morphology (indicating disintegration of the cell body)) | **** (100% of endothelial cells vesicularize in cell shape and look flattened in morphology (indicating disintegration of the cell body)) | – | 100 | cytotoxicity at 40 µM [2]: 100% |
| CCN(CC)C(=O)c1ccc2ncc(S(=O)(=O)c3ccc(OC)cc3)c(N3CCCN(C)CC3)c2c1 [Compound 165] | 0 | * (50% or less of cells vesicularize in cell shape) | – | 10 | cytotoxicity at 40 µM [2]: 10% |
| CCc1ccc(S(=O)(=O)c2cnc3ccc(OC(F)(F)F)cc3c2-n2nnc3ccccc32)cc1 [Compound 112] | ** (more than 50% but less than 100% of endothelial cells vesicularize in cell shape) | – | – | 10 | 48 hrs (morphology observations) ([2]; 20 μm): *** (more than 50% but less than 100% of endothelial cells vesicularize in cell shape); Cell death ([2]; 20 μm): 70% |
| CCCCN(CCCC)c1c(S(=O)(=O)c2ccc(OC)c(OC)c2)cnc2ccc(OC(F)(F)F)cc12 [Compound 74] | *** (100% of endothelial cells vesicularize in cell shape) | *** (more than 50% but less than 100% of endothelial cells vesicularize in cell shape) | 60 | 100 | – |
| CCCCOc1ccc(S(=O)(=O)c2cnc3ccc([S+](C)[O-])cc3c2N2CCC(N3CCCN(C)CC3)CC2)cc1 (stereo not shown) [Compound 241] | – | – | 40 | – | 48 hrs (morphology observations after 48 hours) ([1]; Conc. 10 μm): 0; cytotoxicity at 10 µM [1]: 0% |
| CCCCCCCOc1ccc(S(=O)(=O)c2cnc3ccc([S+](C)[O-])cc3c2N2CCC(N3CCCN(C)CC3)CC2)cc1 (stereo not shown) [Compound 256] | – | – | – | – | 48 hrs (morphology observations after 48 hours) ([1]; Conc. 10 μm): *** (100% of endothelial cells vesicularize in cell shape); cytotoxicity at 10 µM [1]: 90%; 48 hrs (morphology observations) ([2]; 20 μm): **** (100% of endothelial cells vesicularize in cell shape and look flattened in morphology (indicating disintegration of the cell body)); Cell death ([2]; 20 μm): 100% |
| CCc1ccc(S(=O)(=O)c2cnc3ccc(OC(F)(F)F)cc3c2N2CCC3(CC2)OCCO3)cc1 [Compound 52] | 0 | – | 50 | 0 | – |
| CCN(CC)CCNC(=O)c1ccc2ncc(S(=O)(=O)c3ccc(OC)cc3)c(N3CCCN(C)CC3)c2c1 [Compound 166] | *** (100% of endothelial cells vesicularize in cell shape) | 0 | 10 | 60 | – |
| CCCCOc1ccc(S(=O)(=O)c2cnc3ccc(OC(F)(F)F)cc3c2N2CCC(N3CCCCC3)CC2)cc1 [Compound 119] | – | – | – | – | 48 hrs (morphology observations after 48 hours) ([1]; Conc. 20 μm): 0; cytotoxicity at 20 µM [1]: 50%; 48 hrs (morphology observations) ([2]; 20 μm): *** (more than 50% but less than 100% of endothelial cells vesicularize in cell shape); Cell death ([2]; 20 μm): 100% |
